# Laboratory results taken from patent US7375180B2, “Methods and compositions related to IRM compounds and Toll-like receptor 8” (3M Innovative Properties Company, priority 2003, dated 2008).
# Target: T1, TLR8 (Homo sapiens, UniProt Q9NR97)
# T1 sequence (Q9NR97 27-1041): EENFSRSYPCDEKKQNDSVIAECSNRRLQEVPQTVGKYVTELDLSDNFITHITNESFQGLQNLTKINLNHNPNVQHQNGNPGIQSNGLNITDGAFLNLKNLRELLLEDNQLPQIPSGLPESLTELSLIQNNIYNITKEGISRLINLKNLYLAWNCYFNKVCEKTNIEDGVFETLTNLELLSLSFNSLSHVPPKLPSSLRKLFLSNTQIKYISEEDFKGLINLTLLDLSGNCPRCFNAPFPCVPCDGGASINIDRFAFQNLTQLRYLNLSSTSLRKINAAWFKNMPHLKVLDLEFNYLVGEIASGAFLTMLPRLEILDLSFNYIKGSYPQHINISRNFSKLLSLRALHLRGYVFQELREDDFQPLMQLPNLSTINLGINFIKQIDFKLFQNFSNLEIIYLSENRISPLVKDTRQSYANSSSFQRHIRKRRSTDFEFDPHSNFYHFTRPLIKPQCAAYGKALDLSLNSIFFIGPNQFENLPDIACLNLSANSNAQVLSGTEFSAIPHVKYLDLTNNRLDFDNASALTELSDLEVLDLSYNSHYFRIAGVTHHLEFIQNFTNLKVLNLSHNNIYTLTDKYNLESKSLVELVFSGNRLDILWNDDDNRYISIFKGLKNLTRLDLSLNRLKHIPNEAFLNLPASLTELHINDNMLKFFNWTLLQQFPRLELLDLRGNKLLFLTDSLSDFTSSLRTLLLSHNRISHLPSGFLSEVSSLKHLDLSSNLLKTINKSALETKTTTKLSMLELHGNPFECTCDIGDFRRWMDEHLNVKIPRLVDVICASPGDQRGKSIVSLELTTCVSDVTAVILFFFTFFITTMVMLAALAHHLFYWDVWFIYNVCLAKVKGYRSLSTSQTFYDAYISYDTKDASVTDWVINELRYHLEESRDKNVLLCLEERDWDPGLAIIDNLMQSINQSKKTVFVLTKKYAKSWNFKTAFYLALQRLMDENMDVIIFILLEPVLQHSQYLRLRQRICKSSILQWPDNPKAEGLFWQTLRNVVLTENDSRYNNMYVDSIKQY
# Experiment: Dose dependent TLR8-mediated NF-κB-luciferase response in HEK293 cells transfected with TLR8 (Example 5)
# Assay type: cell-based
# Design: expressed in transfected cells; host or cells: HEK293 (ATCC CRL-1573), pIRES vector, G-418 selected, co-transfected with NFkB-luc reporter
# Method: Twenty-four hours before transfection, HEK293 cells were adhered to a 10 cm dish (Corning 430167, Corning Inc., Corning, N.Y.) at 37° C., 8% CO2. The cells were co-transfected with (1) pIRES (BD Biosciences Clontech, Palo Alto, Calif.) either (a) unmodified (HEK293-vector) or (b) containing human TLR8 (HEK293-TLR8), and (2) NFkB-luc reporter (Stratagene, La Jolla, Calif.) in a 10:1 ratio with Fugene 6 transfection reagent (Roche Diagnostics Corp., Indianapolis, Ind.) following the manufacturer's instructions. The plates were incubated for 24 hours following transfection and then selected in G-418 (400 μg/mL) for two weeks. The G-418-resistant cells containing either the TLR8 or empty vector were expanded in HEK293 media supplemented with G-418 for stimulation experiments.
# The transfected cells were plated in white opaque 96 well plates (Costar 3917, Corning Inc., Corning, N.Y.) at a concentration of 5×10^4 cells per well in 100 μL of HEK293 media and incubated at 37° C., 8% CO2 for 4 hours. The cells were stimulated with 1 μL of IRM compounds at 1 mM in DMSO (final IRM concentration of 10 μM) or 1 μL DMSO as a control. The plates were then incubated an additional 16 hours at 37° C., 5% CO2. Luminescence was measured on an LMAX luminometer (Molecular Devices Corp., Sunnyvale, Calif.).
# HEK293 cells were transfected as described in Example 1. HEK293 cultures were incubated with IRM compound or a negative control compound (1,5-dihydro-1-(2-methylpropyl)-4H-imidazo[4,5-c]quinolin-4-one, U.S. Pat. No. 4,698,348, Example 71) at concentrations of 0.1 μM, 0.3 μM, 1.0 μM, 3.0 μM, 10 μM, or 30 μM, or a vehicle control. Cultures were otherwise incubated as described in Example 1. Luciferase signals were read in RLU (Relative Luciferase Units) as described in Example 1.
Fold increase over vehicle (0.1 μM) [fold],Fold increase over vehicle (0.3 μM) [fold],Fold increase over vehicle (1.0 μM) [fold],Fold increase over vehicle (3.0 μM) [fold],Fold increase over vehicle (10 μM) [fold],Fold increase over vehicle (30 μM) [fold],Compound
0.7,0.9,1.0,3.2,5.2,11.8,"COCCc1nc2c(N)nc3ccccc3c2n1CCCCNC(=O)c1cnc2ccccc2c1 [IRM37, N-{4-[4-amino-2-(2-methoxyethyl)-1H-imidazo[4,5-c]quinolin-1-yl]butyl}quinoline-3-carboxamide]"
0.8,0.8,1.3,3.8,6.9,7.8,"COCCc1nc2c(N)nc3ccccc3c2n1CCCCNC(=O)c1cnc2ccccc2n1 [IRM38, N-{4-[4-amino-2-(2-methoxyethyl)-1H-imidazo[4,5-c]quinolin-1-yl]butyl}quinoxaline-2-carboxamide]"
0.9,1.1,1.2,1.5,6.8,18.0,"CCCCc1nc2c(N)nc3ccccc3c2n1CCCNC(=O)N1CCOCC1 [IRM39, N-[3-(4-amino-2-butyl-1H-imidazo[4,5-c]quinolin-1-yl)propyl]morpholine-4-carboxamide]"
1.0,0.9,0.9,1.3,3.1,16.4,"CCCCc1nc2c(N)nc3ccccc3c2n1CCCS(C)(=O)=O [IRM40, 2-butyl-1-[3-(methylsulfonyl)propyl]-1H-imidazo[4,5-c]quinolin-4-amine]"
0.7,0.9,1.0,3.3,12.7,25.4,"COCCc1nc2c(N)nc3c(c2n1CCOCCNC(=O)Nc1ccccc1)CCCC3 [IRM41, N-(2-{2-[4-amino-2-(methoxyethyl)-6,7,8,9-tetrahydro-1H-imidazo[4,5-c]quinolin-1-yl]ethoxy}ethyl)-n′-phenylurea]"
1.0,0.9,1.3,3.8,13.2,26.0,"CCCCc1nc2c(N)nc3ccccc3c2n1CCS(=O)(=O)CC [IRM42, 2-butyl-1-[2-(ethylsulfonyl)ethyl]-1H-imidazo[4,5-c]quinolin-4-amine]"
2.3,2.3,3.3,2.1,5.6,17.0,"CCOCC(=O)NC(C)(C)Cn1c(COCC)nc2c(N)nc3ccccc3c21 [IRM43, N-{2-[4-amino-2-(ethoxymethyl)-1H-imidazo[4,5-c]quinolin-1-yl]-1,1-dimethylethyl}-2-ethoxyacetamide]"
0.9,1.1,1.0,0.9,2.5,12.5,"CCc1nc2c(N)nc3ccccc3c2n1CCS(C)(=O)=O [IRM44, 2-ethyl-1-[2-(methylsulfonyl)ethyl]-1H-imidazo[4,5-c]quinolin-4-amine]"
1.5,2.5,6.7,12.1,17.0,24.3,"CCCCc1nc2c(N)nc3ccccc3c2n1CCS(C)(=O)=O [IRM45, 2-butyl-1-[2-(methylsulfonyl)ethyl]-1H-imidazo[4,5-c]quinolin-4-amine]"
0.9,1.1,1.4,1.7,3.9,7.3,"CCCCc1nc2c(N)nc3ccccc3c2n1CC(C)(C)CNC(=O)N1CCOCC1 [IRM46, N-[3-(4-amino-2-butyl-1H-imidazo[4,5-c]quinolin-1-yl)-2,2-dimethylpropyl]morpholine-4-carboxamide]"
0.9,0.8,1.1,1.7,4.9,12.5,"CCOCc1nc2c(N)nc3ccccc3c2n1CC(C)(C)NC(=O)NC(C)C [IRM47, N-{2-[4-amino-2-(ethoxymethyl)-1H-imidazo[4,5-c]quinolin-1-yl]-1,1-dimethylethyl}-n′-isopropylurea]"
0.9,0.6,1.1,1.2,8.2,9.5,"CCOCc1nc2c(N)nc3cc(-c4ccccc4)ccc3c2n1CC1CCNCC1 [IRM48, 2-ethoxymethyl-7-phenyl-1-(piperidin-4-ylmethyl)-1H-imidazo[4,5-c]quinolin-4-amine]"
1.1,1.4,2.0,3.8,7.0,15.5,"COCCc1nc2c(N)nc3cc(-c4cncc(CO)c4)ccc3c2n1CC(C)(C)O [IRM49, 1-[4-amino-7-(5-hydroxymethylpyridin-3-yl)-2-(2-methoxyethyl)-1H-imidazo[4,5-c]quinolin-1-yl]-2-methylpropan-2-ol]"
1.8,2.1,2.2,4.1,11.7,21.1,"COCCc1nc2c(N)nc3cc(-c4cccc(NS(C)(=O)=O)c4)ccc3c2n1CC(C)(C)O [IRM50, N-{3-[4-amino-1-(2-hydroxy-2-methylpropyl)-2-(methoxyethyl)-1H-imidazo[4,5-c]quinolin-7-yl]phenyl}methanesulfonamide]"
1.9,3.8,11.9,15.0,21.5,22.4,"CCOCc1nc2c(N)nc3cc(-c4cccnc4)ccc3c2n1CC(C)(C)O [IRM51, 1-[4-amino-2-(ethoxymethyl)-7-(pyridin-3-yl)-1H-imidazo[4,5-c]quinolin-1-yl]-2-methylpropan-2-ol]"
